Activity calls are given as the source filed them. The rule behind the calls is not given here.

The test addresses Serine/threonine-protein kinase mTOR (Homo sapiens) (UniProt P42345). Briefly: mTOR FRB domain ligand binding – biophysical, NMR (AID 1648). As to conditions: NMR binding to FRB domain, chemical shift.

Chain of Serine/threonine-protein kinase mTOR (Homo sapiens) (P42345 2015-2114): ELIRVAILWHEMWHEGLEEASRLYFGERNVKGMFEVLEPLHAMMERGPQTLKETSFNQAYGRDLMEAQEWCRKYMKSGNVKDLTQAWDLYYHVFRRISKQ

For `CC(=O)NC(=S)Nc1ccc(N(C)C(C)=O)cc1`, the Kd (commonly the constant that tells how readily two partners part at equilibrium) is > 4 mM (inactive). Then `CSc1nnc(CN2CCSCC2)n1C`, with > 4 mM (inactive); and `O=C1C2C3C=CC(C3)C2C(=O)N1CCCO` (stereo unspecified), with > 4 mM (inactive); and `O=C(O)Cc1c[nH]c2ccccc12`, with > 4 mM (inactive).

Take `CC1(C)C(=O)[C@@H]2C[C@@]3(O)C4=CC(=O)O[C@@H](c5ccoc5)[C@]4(C)CCC3C(C)(C2=O)[C@H]1CC(=O)O` (stereo partly specified): the Kd was > 4 mM (inactive). For the compound `Cc1ccc2[nH]c3nc(=S)[nH]nc3c2c1`, the Kd was > 4 mM (inactive).

`CC(=O)O[C@H]1C[C@@]2(C)[C@@H](C[C@@H](O)C3[C@]2(C)CC[C@H]2[C@H](C)[C@H](O)CC[C@]32C)/C1=C(/CCC=C(C)C)C(=O)O` (stereo partly specified): the Kd was > 4 mM (inactive). As to `CCCc1ncc(C(O)c2cccc3ccccc23)n1C` (stereo unspecified), the Kd was > 4 mM (inactive). Consider `O=C(Nc1cnccn1)c1cccnc1`, for which the Kd is > 4 mM (inactive). Next, `COc1ccc(-c2cc(=O)c3cc(OC)ccc3o2)cc1`: > 4 mM (inactive); `Nc1nc(-c2ccc(F)c(F)c2)cs1`: > 4 mM (inactive). With `Cc1nnc(N2CCc3ccccc3C2)[nH]c1=O`, the Kd is > 4 mM (inactive).

As for `Oc1ccccc1C(=S)N1CCCCCC1`, the Kd is > 4 mM (inactive).

In the case of `Cc1ccc2[nH]cc(CCN)c2c1`, the Kd was > 4 mM (inactive). Then `CC(=O)N1CCC(NC2CCCCCC2)CC1`, with > 4 mM (inactive). For the compound `COC(=O)CC1SC(=O)NC1=O` (stereo unspecified), the Kd is > 4 mM (inactive). Take `CCOC(=O)c1cnc2n(c1=O)CCS2`: the Kd is > 4 mM (inactive). Next, `C[C@@H]1CC[C@@]2(OC1)OC1C(O)C3C4CC[C@H]5C[C@H](O[C@@H]6O[C@H](CO)[C@H](O[C@@H]7O[C@H](CO)[C@@H](O)[C@H](O[C@@H]8OC[C@@H](O)[C@H](O)[C@H]8O)[C@H]7O[C@@H]7O[C@H](CO)[C@H](O)[C@H](O[C@@H]8O[C@H](CO)[C@@H](O)[C@H](O)[C@H]8O)[C@H]7O)[C@H](O)[C@H]6O)[C@H](O)C[C@]5(C)C4CC[C@]3(C)C1[C@@H]2C` (stereo partly specified): > 4 mM (inactive); `CCc1ccccc1NC(=O)c1cnccn1`: > 4 mM (inactive); `Cn1cnc([N+](=O)[O-])c1Sc1ncnc2nc[nH]c12`: > 4 mM (inactive). As to `C=C(C)[C@H]1Cc2c(ccc3c2O[C@@H]2COc4cc(OC)c(OC)cc4[C@@H]2C3=O)O1`, the Kd was > 4 mM (inactive). As to `NC(=O)CSc1ccc(Br)cc1`, the Kd was > 4 mM (inactive).

With `c1ccc(C[N+]23CCN(CC2)CC3)cc1`, the Kd was > 4 mM (inactive). Next, `Cn1c(CN)nc2ccccc21`: > 4 mM (inactive).

On to `NC(=O)Nc1cccc(C(F)(F)F)c1`, for which the Kd is > 4 mM (inactive). With `Cc1nc(N)sc1C(=O)Nc1nccs1`, the Kd is > 4 mM (inactive). Next, `Cc1c(C)n2c(SCC(N)=O)nnc2[nH]c1=O`: > 4 mM (inactive); `CNS(=O)(=O)c1ccc2[nH]c(=O)[nH]c2c1`: > 4 mM (inactive); `Cc1cc2c(nn1)CCc1nonc1-2`: > 4 mM (inactive). Regarding `COc1ccc(Cl)cc1-c1nc(-c2ccncc2)no1`, the Kd was > 4 mM (inactive).

Regarding `Cc1nnsc1C(=O)N(C)c1ccccc1`, the Kd was > 4 mM (inactive). Next, `Cn1ncc(CO)c1-c1ccccc1`: > 4 mM (inactive). For `O=C(O)c1ccc2sccc2c1`, the Kd was > 4 mM (inactive).

In the case of `Nc1ccc(Cc2ccc(N)cc2)cc1`, the Kd is > 4 mM (inactive).

For `Cn1c(=O)n(-c2cccc(Cl)c2)c(=O)n1C`, the Kd is > 4 mM (inactive).

Take `S=C(c1ccc2c(c1)OCO2)N1CCCC1`: the Kd was > 4 mM (inactive).

For the compound `NC1=NC(=O)/C(=C/c2ccccc2[N+](=O)[O-])S1`, the Kd was > 4 mM (inactive). Then `O=C1CSC(=Nc2cccc(C(F)(F)F)c2)N1`, with > 4 mM (inactive); and `CC(=O)OC1CC[C@@]2(C)C(CCC3C2CC[C@]2(C)C(C4=CC(=O)OC4)C(OC(C)=O)CC32O)C1` (stereo partly specified), with > 4 mM (inactive).

For the compound `C[C@H]1[C@H]2CCC3C4CC=C5C[C@@H](N(C)C)CC[C@]5(C)C4CC[C@@]32CN1C` (stereo partly specified), the Kd is > 4 mM (inactive).

Regarding `O=c1cc(-c2ccc(O)cc2)oc2cc(O[C@@H]3O[C@H](CO)[C@@H](O)[C@H](O)[C@H]3O[C@@H]3OC[C@](O)(CO)[C@H]3O)cc(O)c12`, the Kd was > 4 mM (inactive). For the compound `CNc1nc(OC)nc(N2CCOCC2)n1`, the Kd is > 4 mM (inactive). Take `CN(C)S(=O)(=O)NCc1ccc2c(c1)OCO2`: the Kd was > 4 mM (inactive). For `CS(=O)(=O)c1ccc(N)cc1`, the Kd was > 4 mM (inactive). Next, `O=C(c1ccco1)N1C(=O)c2cccc3cccc1c23`: > 4 mM (inactive). With `O=C(Nc1ccncc1)Nc1ccc(F)cc1F`, the Kd was > 4 mM (inactive). Then `O=C(O)CCC(=O)Nc1nccs1`, with > 4 mM (inactive). On to `CC1(C)Cc2c(c(-c3ccco3)[nH]c(=O)c2C#N)CO1`, for which the Kd is > 4 mM (inactive). Then `CNC(=S)Nc1ccc(C(=O)O)cc1`, with > 4 mM (inactive); and `N[C@@H](Cc1cc(I)c(Oc2cc(I)c(O)c(I)c2)c(I)c1)C(=O)O`, with > 4 mM (inactive); and `COc1ccccc1/C=C/CN1CCOCC1`, with > 4 mM (inactive). Next, `O=C(c1ccccc1)N1CCOCC1`: > 4 mM (inactive). Next, `C=C1CCC(C2CC(=O)OC2=O)C(=O)CCC2C1CC2(C)C` (stereo unspecified): > 4 mM (inactive); `Cn1c(=O)n(CC(=O)Nc2cccnc2)c2ccccc21`: > 4 mM (inactive); `O=c1[nH]c2ccccc2c(=O)n1CCCO`: > 4 mM (inactive). In the case of `C[C@@H]1CC[C@@]2(OC1)OC1CC3C4CC=C5C[C@@H](O)CC[C@]5(C)C4CC[C@]3(C)C1[C@@H]2C` (stereo partly specified), the Kd is > 4 mM (inactive). Next, `O=C1O[C@H](C(O)CO)C(O)=C1O` (stereo partly specified): > 4 mM (inactive). Next, `CC[C@H]1CN2CCc3cc(OC)c(OC)cc3C2C[C@@H]1CC1NCCc2cc(OC)c(OC)cc21` (stereo partly specified): > 4 mM (inactive). Then `COC(=O)c1c(C)cc(OC)cc1O`, with > 4 mM (inactive). Take `CC(=O)Nc1ccc(NC(=O)/C=C\C(=O)O)cc1`: the Kd is > 4 mM (inactive). With `Cc1cc(C(=O)Nn2cnnc2)cs1`, the Kd was > 4 mM (inactive). As to `Nc1scc[n+]1CC(=O)[O-]`, the Kd was > 4 mM (inactive). With `COc1cccc(S(=O)(=O)Nc2cccnc2)c1`, the Kd is > 4 mM (inactive). Next, `O=C1N=c2ccccc2=C1c1sc(=S)[nH]c1O`: > 4 mM (inactive); `CC1(C)CC2C1CCC1(C)OC2(C)CCC1O` (stereo unspecified): > 4 mM (inactive); `NCc1ccc2c(c1)CCO2`: > 4 mM (inactive). Next, `Cc1cc(C)n2nc(NCc3ccccc3)nc2n1`: > 4 mM (inactive); `O=C(CC1SC(=O)NC1=O)Nc1ccccc1` (stereo unspecified): > 4 mM (inactive); `NC(=O)NCCCC(N)C(=O)O` (stereo unspecified): > 4 mM (inactive). Regarding `C#CCCCCCCCCCCCC(O)CC(O)COC(C)=O` (stereo unspecified), the Kd is > 4 mM (inactive).

Take `CN1CCN(c2ccc(C(=O)O)cc2)CC1`: the Kd was > 4 mM (inactive). Consider `Nc1ccc(-c2cn3c(n2)SCC3)cc1`, for which the Kd was > 4 mM (inactive). Regarding `O=C(O)CCCN1CNC(=S)NC1`, the Kd is > 4 mM (inactive).

Take `CCNS(=O)(=O)c1cc(Br)ccc1OC`: the Kd was > 4 mM (inactive).

As to `O=C(O)C1CCCCN1Cc1ccccc1` (stereo unspecified), the Kd was > 4 mM (inactive). Then `O=C1CCC(=O)N1c1ccc(O)cc1`, with > 4 mM (inactive); and `Cc1ccc(SCc2nc(-c3ccncc3)no2)cc1`, with > 4 mM (inactive). Turning to `OCc1ccc2occc2c1`, the Kd is > 4 mM (inactive). With `O=C(O)CCC1=C2c3ccccc3CCN2C(=O)CC1`, the Kd is > 4 mM (inactive). Next, `CC(=O)NC(=S)Nc1ccc(S(N)(=O)=O)cc1`: > 4 mM (inactive); `O=C1Nc2ccccc2C12OCCO2`: > 4 mM (inactive). Next, `O=C(Nc1ccon1)c1cc2c(s1)CCCC2`: > 4 mM (inactive); `CC(C)(C)NC(=O)N1CCC(C(=O)O)CC1`: > 4 mM (inactive); `O=C(O)Cn1cnc2ccccc2c1=O`: > 4 mM (inactive). Next, `COc1ccc(-c2cc(=O)c3c(OC)c(OC)c(OC)c(OC)c3o2)cc1OC`: > 4 mM (inactive). Take `O=c1[nH]c(=S)c2c(n1-c1ccccc1)CCC2`: the Kd was > 4 mM (inactive). Then `CC1(C)O[C@H]2CC(=O)OC[C@]23[C@H]2CC[C@@]4(C)[C@H](c5ccoc5)OC(=O)[C@H]5O[C@]54[C@]2(C)C(=O)C[C@@H]13`, with > 4 mM (inactive); and `Cc1nc(NCc2ccco2)nc2c1C(=O)CC(C)C2` (stereo unspecified), with > 4 mM (inactive); and `Cn1cnnc1SCCCNC(=O)Nc1ncccn1`, with > 4 mM (inactive). Next, `CCCCN1C(=O)N(C)C2NC(=O)NC21` (stereo unspecified): > 4 mM (inactive); `O=C(O)c1[nH]nc2c1COc1ccccc1-2`: > 4 mM (inactive); `C/C=C(\C)C(=O)OC1[C@@H]2C=C3C(CC[C@]4(C)C3CC(=O)O[C@H]4c3ccoc3)C(C)(C2=O)[C@@H](C(O)C(=O)OC)C1(C)C` (stereo partly specified): > 4 mM (inactive).

Consider `S=c1oc(-c2ccncc2)nn1CCc1ccncc1`, for which the Kd is > 4 mM (inactive).

As to `Cc1noc(C)c1C(=O)N1CCN(c2ncccn2)CC1`, the Kd is > 4 mM (inactive).

Take `O=C(O)CSCC(=O)Nc1cccc(O)c1`: the Kd is > 4 mM (inactive). Take `OC[C@H]1O[C@@](CO)(O[C@@H]2O[C@H](CO)[C@@H](O)[C@H](O)[C@H]2O)[C@@H](O[C@@H]2O[C@H](CO)[C@@H](O)[C@H](O)[C@H]2O)[C@@H]1O`: the Kd was > 4 mM (inactive).

(Values after PubChem BioAssay AID1648 (Sanford-Burnham Center for Chemical Genomics, 2009).)
